Assay results taken from patent US10293004B2, “Butyrate-producing bacterium and use thereof” (KABUSHIKI KAISHA YAKULT HONSHA, priority 2014, dated 2019).

Assays:
[1] = Biochemical properties: enzymatic activity (API-ZYM, Rapid ID32A API, API KENKI 20A); design: key: +: positive reaction; −: negative reaction; +^w: weak reaction
From the text: (§1) Commercially available API-ZYM, Rapid ID32A API, and API KENKI 20A (SYSMEX bioMerieux Co., Ltd.) were used in the testing of biochemical properties of various bacterial strains. The testing method followed the product manuals.

[2] = Turbidity (OD660) after anaerobic culture of bacterial strains in PYGA, PYSA or PYXA medium
Procedure: (§2) A frozen stock solution of each bacterial strain (a 10% (w/v) skim milk-2% sodium glutamate solution in which bacterial cells were suspended) (cell count: 2.0 to 5.5×10^10 cells/mL) was thawed, and the solution was inoculated at 1% to 4 mL of a PY liquid medium supplemented with 33 mM sodium acetate and 0.5 (w/v) % glucose (PYGA medium), followed by anaerobic culture at 37° C. for 24 hours. After the culture, the culture solution was inoculated at 1% to a fresh PYGA medium, followed by anaerobic culture at 37° C. for 24 hours. After the culture, the turbidity (OD660) of the culture solution was measured. Then, the culture solution was inoculated at 1% to a PY medium containing 0.5 (w/v) % L-sorbose or D-xylitol and 33 mM sodium acetate (the medium containing L-sorbose: PYSA, and the medium containing D-xylitol: PYXA), followed by anaerobic culture at 37° C. for 24 hours. Then, the turbidity (OD660) was measured.

[3] = Evaluation of ability to produce butyrate from indigestible saccharides (Example 3)
From the text: Galactooligosaccharide (GOS), maltitol, D-mannitol, lactitol, isomalt, isomaltulose, L-sorbose and D-sorbitol were used as indigestible saccharides. These indigestible saccharides used, except for GOS, were reagent grade. GOS used was commercially available Oligomate 55N (Yakult Pharmaceutical Industry Co., Ltd.) from which monosaccharide and lactose fractions (fractions digestible and absorbable by the upper gastrointestinal tract) had been removed using an activated carbon column. Specifically, a saccharide solution diluted with purified water was added to a column packed with activated carbon (manufactured by Wako Pure Chemical Industries, Ltd.) swollen in purified water, and the column was washed with a 2% ethanol solution, followed by the elution of an indigestible fraction with a 50% ethanol solution. The eluate was dried under reduced pressure, and the obtained GOS saccharide solution was used.
A. hadrus YIT 10092^T (DSM 3119^T), which is a type strain of A. hadrus (a typical human intestinal butyrate-producing bacterium), and two isolates were used.
Each of these bacterial strains was anaerobically cultured at 37° C. for 24 hours in a PYA medium containing 33 mM sodium acetate supplemented with 0.5% D-glucose (PYGA medium). The culture solution was inoculated at 1% to a PYA medium containing 0.5 (w/v) % of each indigestible saccharide (test medium), followed by anaerobic culture at 37° C. for 24 hours. After the completion of the culture, the organic acid concentration in the culture solution was analyzed by ion-exclusion HPLC. The analysis conditions were the same as those described above in Example 2. After the quantification of the organic acid concentration, the amount of butyrate produced from each indigestible saccharide and the ratio of butyrate to total short-chain fatty acids were calculated according to the following expressions. (Amount of butyrate produced)=(Amount of butyrate in the test medium after culture)−(Amount of butyrate in a PYA medium without each indigestible saccharide after culture) (Ratio of butyrate)=(Amount of butyrate in the test medium after culture)/((Amount of acetate+Amount of propionate+Amount of butyrate) in the test medium after culture)×100 (Expression 3)

[4] = Production of butyrate by each bacterial strain from L-sorbose and D-xylitol (ion-exclusion HPLC); details: 24 hours, minus PYA blank
Procedure: as §2
After the completion of the culture, the organic acid concentration in the culture solution was quantified by ion-exclusion HPLC. In this operation, a culture solution in a PY medium supplemented with sodium acetate but without L-sorbose or D-xylitol (PYA medium) was used as a blank.
(HPLC Analysis Conditions) • Eluent: 15 mM perchloric acid-7% acetonitrile • pH adjuster: 15 mM perchloric acid-60 mM • tris(hydroxymethyl)aminomethane-7% acetonitrile • Separation column: Organic acid analysis column RSpak KC- • 811×2 (manufactured by Showa Denko K.K.) • Column temperature: 42° C. • Injected sample volume: 10 μL • Flow rate: 1.0 mL/min • Analysis time: 35 min • Detector: Waters 432 electric conductivity detector • Cell temperature: 45° C.
The amount of butyrate produced was calculated according to (Expression 1). Amount of butyrate produced=(Amount of butyrate produced by culture for 24 hours in a PYSA or PYXA medium)−(Amount of butyrate produced by culture for 24 hours in a PYA medium) (Expression 1)

[5] = Biochemical properties: saccharide fermentability (API-ZYM, Rapid ID32A API, API KENKI 20A); design: key: +: positive reaction; −: negative reaction; +^w: weak reaction
From the text: as §1

[6] = Amount of butyrate produced by culture in PYA medium supplemented with acetate and lactate; details: PYA medium (33 mM sodium acetate) with 40 mM sodium lactate, 37° C. 24 hours, minus PYA without lactate
Procedure: Each bacterial solution cultured in a PYGA liquid medium under the same conditions as those described in the preceding paragraph 1) was inoculated at 1% to a PYA medium containing 33 mM sodium acetate and further supplemented with 40 mM sodium lactate, followed by anaerobic culture at 37° C. for 24 hours. After the completion of the culture, the organic acid concentration in the culture solution was analyzed by ion-exclusion HPLC. The analysis conditions were the same as those described in the preceding paragraph 1). The amount of butyrate produced was calculated according to (Expression 2). Amount of butyrate produced=(Amount of butyrate produced by culture for 24 hours in a PYA medium supplemented with 40 mM sodium lactate)−(Amount of butyrate produced by culture for 24 hours in a PYA medium without 40 mM sodium lactate) (Expression 2)

## A. hadrus (Eubacterium hadrum) YIT 12354 (NITE BP-01831)
[1]
  Acid phosphatase: +
  Alkaline phosphatase: +
  Esterase (C4): −
  Naphthol-AS-B1-phosphohydrolase: +
  α-Glucosidase: −
  β-Galactosidase: +
  β-Galactosidase-6-phosphate: −
[2]; after anaerobic culture at 37° C. for 24 hours in PYGA liquid medium
  Turbidity (OD660): 2.76
[2]; anaerobic culture at 37° C. for 24 hours of 1% inoculum in PYSA (L-sorbose)
  Turbidity (OD660): 2.26
[2]; anaerobic culture at 37° C. for 24 hours of 1% inoculum in PYXA (D-xylitol)
  Turbidity (OD660): 1.09
[3]; PYA medium with 0.5 (w/v) % of each indigestible saccharide, versus type strain, FIGS. 3 and 4
  ability to utilize indigestible saccharides: more than the type strain YIT 10092^T
[3]; from indigestible saccharides, versus type strain, FIG. 3
  Amount of butyrate produced: larger
[3]; versus type strain YIT 10092^T, FIG. 4
  ratio of butyrate to total short-chain fatty acids: higher than that of the type strain YIT 10092^T
[4]; D-Xylitol 0.5 (w/v) %, PYXA medium
  Amount of butyrate produced: 31.0 mmol/L
[4]; L-Sorbose 0.5 (w/v) %, PYSA medium
  Amount of butyrate produced: 14.8 mmol/L
[5]
  Aesculin: −
  D-Cellobiose: −
  D-Mannitol: +
  D-Raffinose: +^w
  D-Xylose: +
  Glycerol: −
  L-Arabinose: +
  L-Rhamnose: −
  L-Sorbitol: +
  Mallose: +^w
  Salicin: −
[6]
  Amount of butyrate produced: 16.5 mmol/L
